Key:
cPLA2 = target: T1, cPLA2 (Homo sapiens, UniProt P47712); assay: Coumarine Assay (hydrolysis of 7-hydroxycoumarinyl 6-heptenoate by cPLA2, fluorometric); assay type: biochemical; settings: 60 μM 7-hydroxycoumarinyl 6-heptenoate substrate, 4 μg cPLA2, pH 7.5; excitation 360 nm, emission 460 nm; read-out: Coumarin IC50
T1 sequence (P47712 1-749): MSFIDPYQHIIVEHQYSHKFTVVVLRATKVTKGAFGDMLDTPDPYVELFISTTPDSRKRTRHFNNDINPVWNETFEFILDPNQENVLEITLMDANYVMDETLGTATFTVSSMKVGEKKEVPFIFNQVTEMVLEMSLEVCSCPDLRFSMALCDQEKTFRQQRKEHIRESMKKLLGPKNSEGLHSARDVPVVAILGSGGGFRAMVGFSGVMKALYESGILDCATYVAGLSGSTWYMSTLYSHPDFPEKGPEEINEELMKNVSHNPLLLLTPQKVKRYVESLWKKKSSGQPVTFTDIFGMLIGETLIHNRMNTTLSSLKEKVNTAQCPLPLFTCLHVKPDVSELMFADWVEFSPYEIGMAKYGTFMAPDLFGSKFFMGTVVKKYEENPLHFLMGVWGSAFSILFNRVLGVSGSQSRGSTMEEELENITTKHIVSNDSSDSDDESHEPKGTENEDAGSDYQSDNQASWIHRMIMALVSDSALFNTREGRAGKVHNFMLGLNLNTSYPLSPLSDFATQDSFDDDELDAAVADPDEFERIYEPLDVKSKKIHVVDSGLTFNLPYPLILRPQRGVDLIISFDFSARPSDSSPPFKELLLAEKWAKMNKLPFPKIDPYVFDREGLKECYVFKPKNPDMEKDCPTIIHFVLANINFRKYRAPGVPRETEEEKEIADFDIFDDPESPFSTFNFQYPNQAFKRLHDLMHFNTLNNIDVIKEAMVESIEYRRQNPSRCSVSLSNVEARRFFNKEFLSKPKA
Protocol: Inhibitors were mixed with 200 μL assay buffer (80 mM Heped, pH 7.5, 1 mM EDTA) containing 60 μM 7-hydroxycoumarinyl 6-heptenoate. The reaction was initiated by adding 4 μg cPLA2 in 50 μL assay buffer. Hydrolysis of the 7-hydroxycounarimyl 6-heptenoate ester was monitored in a fluorometer by exciting at 360 nm and monitoring emission at 460 nm. Enzyme activity is proportional to the increase in emission at 460 nm per minute. In the presence of a cPLA2 inhibitor, the rate of increase is less.

## 4-[2-(1-benzhydryl-5-chloro-2-{2-[({2-[(3R,5S)-3,5-dimethylmorpholin4-yl]ethyl}sulfonyl)amino]ethyl}-1H-indol-3-yl)ethoxy]benzoic acid [Example 250]
cPLA2
  IC50: 2100 nM

## 4-{2-[1-benzhydryl-5-chloro-2-(2-{[(2,6-dimethylbenzyl)sulfonyl]amino}ethyl)-1H-indol-3-yl]ethoxy}benzoic acid [Example 279]
cPLA2
  IC50: 160 nM

## O=C(O)c1ccc(OCCc2c(CCNS(=O)(=O)c3cccc(F)c3)n(C(c3ccccc3)c3ccccc3)c3ccc(Cl)cc23)cc1 [Example 223]
cPLA2
  IC50: 600 nM

## O=C(O)c1ccc(OCCc2c(CCNS(=O)(=O)c3c(F)cccc3F)n(C(c3ccccc3)c3ccccc3)c3ccc(Cl)cc23)cc1 [Example 225, 4-{2-[1-benzhydryl-5-chloro-2-(2-{[(2,6-fluorophenyl)sulfonyl]amino}ethyl)-1H-indol-3-yl]ethoxy}benzoic acid]
cPLA2
  IC50: 400 nM

## O=C(O)c1cccc(OCCc2c(CCNS(=O)(=O)Cc3ccc(Cl)c(Cl)c3)n(C(c3ccccc3)c3ccccc3)c3ccc(Cl)cc23)c1 [Example 284, 3-(2-(1-benzhydryl-5-chloro-2-(2-((3,4-dichlorophenyl)methylsulfonamido)ethyl)-1H-indol-3-yl)ethoxy) benzoic acid]
cPLA2
  IC50: 400 nM

## O=C(O)c1ccc(OCCc2c(CCNS(=O)(=O)Cc3ccc(Cl)c(Cl)c3)n(C(c3ccccc3)c3ccccc3)c3ccc(Cl)cc23)cc1F [Example 296, 4-{2-[1-benzhydryl-5-chloro-2-(2-{[(3,4-dichlorobenzyl)sulfonyl]amino}ethyl)-1H-indol-3-yl]ethoxy}-2-fluorobenzoic acid]
other
  melting point: 117 to 119 °C

## O=C(O)c1ccc(OCCc2c(CCNS(=O)(=O)Cc3ccccc3Cl)n(C(c3ccccc3)c3ccccc3)c3ccc(Cl)cc23)cc1F [Example 297, 4-{2-[1-benzhydryl-5-chloro-2-(2-{[(2-chlorobenzyl)sulfonyl]amino}ethyl)-1H-indol-3-yl]ethoxy}-2-fluorobenzoic acid]
other
  melting point: 132 to 135 °C

## CC(C)(Cc1ccc(S(=O)(=O)CCc2c(CCNS(=O)(=O)Cc3ccc(Cl)c(Cl)c3)n(C(c3ccccc3)c3ccccc3)c3ccc(Cl)cc23)cc1)C(=O)O [Example 298, 3-[4-({2-[1-benzhydryl-5-chloro-2-(2-{[(3,4-dichlorobenzyl)sulfonyl]amino}ethyl)-1H-indol-3-yl]ethyl}sulfonyl)phenyl]-2,2-dimethylpropanoic acid]
other
  melting point: 207 to 208 °C
